Measurements published in patent US11485720B2, “Anti-infective agents” (University of Dundee, priority 2016, dated 2022).

Key:
[1] = tested on: Plasmodium falciparum strain 3D7; assay: Plasmodium falciparum 3D7 in vitro growth inhibition (SYBRgreen I); format: cell-based; settings: Plasmodium falciparum, 3D7; read-out: pEC50 for Pf 3D7 (converted)
Experimental: Parasite Cultures and Cytotoxicity Assay Methodology for Plasmodium falciparum. […] Growth inhibition of the Plasmodium falciparum cultures was quantified in a 10-point dose response curve with a 1 in 3 dilution series from a top assay concentration of 50 μM. This 384 well plate based fluorescence assay utilises the binding of SYBRgreen I (Thermo Fisher Scientific/Invitrogen cat. no. S7585) to double stranded DNA, which greatly increases the fluorescent signal at 528 nm after excitation at 485 nm. Mefloquine was used as a drug control to monitor the quality of the assay (Z′=0.6 to 0.8, where Z′ is a measure of the discrimination between the positive and negative controls on a screen plate). Dose-response curves were determined from a minimum of 3 independent experiments. Compound bioactivity was expressed as EC50, the effective concentration of compound causing 50% parasite death.

Hep G2 = Hep G2 in-vitro cytotoxicity assay; format: cell-based; settings: Homo sapiens, HepG2, read-out: Hs HEPG2 pEC50 (converted)
Description: In-vitro cytotoxicity studies can be carried out using Hep G2 (Human hepatocyte carcinoma, HPACC cat. no. 85011430) used as indicators for general mammalian cell toxicity. Hep G2 in-vitro cytotoxicity can be assessed using the assay procedure as described in “Use of a human-derived liver cell line for the detection of cytoprotective, antigenotoxic and cogenotoxic agents”, Volker Mersch-Sundermann, Siegfried Knasmüller, Xin-jiang Wu, Firouz Darroudi, Fekadu Kassie. J. Tox 198 (2004) 329-340) the contents of which are incorporated herein by reference.

Cryptosporidium parvum = assay: In vitro Crytosporidium inhibition assay; format: cell-based; settings: Cryptosporidium parvum; read-out: Cryptosporidium parvum pEC50 (converted)
Description: Assay Method for Measurement of In Vitro Inhibition of Crytosporidium.
These experiments were run in accordance with the method of Besssoff et. al. Antimicrob. Agents Chemother. 2013, 57:1804-1814. Results from these experiments are provided in the Experimental Results hereinafter.

[2] = target: T1, Plasmodium falciparum lysyl t-RNA synthetase (Pf-KRS1) (Plasmodium falciparum, UniProt Q8IDJ8); assay: Pf-KRS1 inhibition biochemical assay (Kinase-Glo, ATP depletion); settings: read-out: Pf-KRS pIC50 (converted)
T1 construct: Pf KRS1-; made in house; host or cells: E. coli BL21 (DE3)
Description: Plasmodium falciparum Lysine tRNA Synthetase (KRS1) Biochemical Assay Methodology.
Lysine tRNA Synthetase (KRS1) is an enzyme which catalyses the esterification of L-Lysine to the appropriate transfer ribonucleic acid (tRNA), to form an aminoacyl-tRNA. Once the tRNA is charged, a ribosome transfers the amino acid from the tRNA onto a growing peptide, according to the genetic code.
The substrates of this reaction are L-lysine, and adenosine triphosphate (ATP), the overall reaction is: amino acid+tRNA+ATP→aminoacyl-tRNA+AMP+PPi
In this overall reaction AMP is adenosine monophosphate and PP; is inorganic pyrophosphate. The reaction progression in a biochemical assay can be tracked by the depletion of one of the substrates, in the case of this invention, ATP. This was done using the proprietary assay kit, Kinase Glo® Assay which is a luminescent kinase assay platform suitable for monitoring kinase activities using up to 10 μm ATP which is commercially available from the Promega Corporation of Madison, Wis., USA. The Kinase-Glo® Assay was performed in a single well of a multiwell plate by adding a volume of Kinase-Glo® Reagent equal to the volume of a completed kinase reaction and measuring luminescence. The resulting luminescent signal is correlated with the amount of ATP present and is inversely correlated with the amount of kinase activity. As such by use of this assay methodology a reduction of the luminescent signal is relative to the reduction in ATP as the reaction progresses. A compound which inhibits the action of KRS will show no drop in the luminescent signal from assay controls.
Assays were performed using both Plasmodium falciparum and human KRS to assess any selectivity of various test compounds.
Test compounds were solubilized in DMSO at a top concentration of 10 mM and serially diluted 1 in 3 to achieve a range of final assay concentrations of 50 μM to 2.5 nM in 10 μl reaction volume.
KRS was diluted to a working concentration of 75 nM in assay buffer (25 mM HEPES, 25 mM KOH, 10 mM MgCl2.6H2O, 50 mM KCl), and the following ‘Master Mix’ prepared in assay buffer: 0.1 mg/ml BSA, 250 μM DTT, 200 μM Spermine, 0.05% NP-40, ATP 3 μM for Pf KRS1 (4 μM for Hs KRS1), 0.4 mg/ml tRNA from Yeast, 60 μM L-Lysine, 0.5 U/ml Pyrophosphatase.
Plates were incubated at room temperature for 5 h for Pf KRS (2.5 hrs for HsKRS), then the assay stopped by the addition of 10 μl of The Kinase-Glo® Reagent Assay was performed in a single well of a multiwell plate by adding a volume of Kinase-Glo® Reagent which is commercially available from the Promega Corporation of Madison, Wis., USA. The plates were incubated in the dark for a further 15 mins before being read for luminescence on a BMG PHERAstar® FSX plate reader which is a multi-mode reader for use in high-throughput screening available from BMG Labtech if Cary, N.C., USA. Data were analysed by calculating the percentage inhibition compared to the maximum and minimum assay controls. Concentration effect curves were fitted using nonlinear regression within ActivityBase and IC50 values were determined using standard protocols.

Trypanosoma cruzi = Trypanosoma cruzi intracellular imaging assay; format: cell-based; settings: read-out: Trypanosoma cruzi pEC50 (converted)
Description: Assay Method for Measurement of In Vitro Inhibition of Trypanosoma cruzi. […] These experiments were run in accordance with the method of Pena et. al., Scientific Reports 5, Article number: 8771 (2015). Results from these experiments are provided in the Experimental Results hereinafter.

[3] = target: T2, Mycobacterium tuberculosis lysyl t-RNA synthetase (Mtb KRS) (Mycobacterium tuberculosis, UniProt P9WFU9); assay: Mtb KRS inhibition biochemical assay (BioMol Green); settings: read-out: Mtb KRS pIC50 (converted)
T2 construct: MtbKRS1-; made in house; host or cells: E. coli BL21 (DE3)
T2 sequence (P9WFU9 whole entry): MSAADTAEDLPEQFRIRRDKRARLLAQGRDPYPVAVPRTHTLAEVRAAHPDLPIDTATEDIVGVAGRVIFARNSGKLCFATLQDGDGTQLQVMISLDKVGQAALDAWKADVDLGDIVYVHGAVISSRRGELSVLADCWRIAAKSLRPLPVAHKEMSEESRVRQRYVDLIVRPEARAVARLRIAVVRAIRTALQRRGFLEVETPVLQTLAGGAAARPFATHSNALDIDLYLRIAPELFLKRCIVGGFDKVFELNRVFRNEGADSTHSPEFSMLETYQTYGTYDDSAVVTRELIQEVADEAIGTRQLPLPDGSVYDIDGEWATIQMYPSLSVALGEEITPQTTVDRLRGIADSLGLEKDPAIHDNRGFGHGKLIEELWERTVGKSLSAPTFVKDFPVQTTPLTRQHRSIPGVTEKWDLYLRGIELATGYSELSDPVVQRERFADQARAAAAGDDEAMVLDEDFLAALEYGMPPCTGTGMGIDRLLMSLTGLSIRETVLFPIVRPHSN

T1 sequence (Q8IDJ8 entry or part of it, looked up, natural form): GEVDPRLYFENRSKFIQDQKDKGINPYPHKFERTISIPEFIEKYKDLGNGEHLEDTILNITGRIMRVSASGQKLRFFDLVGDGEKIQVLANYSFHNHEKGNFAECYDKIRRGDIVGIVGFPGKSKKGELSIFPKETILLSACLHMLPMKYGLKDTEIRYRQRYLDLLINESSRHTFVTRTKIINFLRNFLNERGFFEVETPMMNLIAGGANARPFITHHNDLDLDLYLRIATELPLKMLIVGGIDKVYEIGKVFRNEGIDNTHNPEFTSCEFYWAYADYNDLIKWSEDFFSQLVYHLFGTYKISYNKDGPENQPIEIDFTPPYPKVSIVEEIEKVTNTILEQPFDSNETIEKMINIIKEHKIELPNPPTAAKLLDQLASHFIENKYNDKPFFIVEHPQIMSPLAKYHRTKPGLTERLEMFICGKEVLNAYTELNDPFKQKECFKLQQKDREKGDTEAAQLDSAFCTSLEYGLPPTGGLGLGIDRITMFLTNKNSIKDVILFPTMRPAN

Row | SMILES | EC50 [1] | EC50 (Hep G2) | EC50 (Cryptosporidium parvum) | IC50 [2] | EC50 (Trypanosoma cruzi) | IC50 [3]
1 | O=C(NCC1CCCCC1)c1cc(=O)c2cc(O)ccc2o1 [Example 6, N-(cyclohexylmethyl)-6-hydroxy-4-oxo-chromene-2-carboxamide] | 158 nM | 15800 nM | 126 nM | 63.1 nM | 20 nM | 
2 | O=C(NCC1CCCCC1)c1cc(=O)c2cccc(O)c2o1 [Example 12, N-(cyclohexylmethyl)-8-hydroxy-4-oxo-chromene-2-carboxamide] |  | 25100 nM |  |  | 316 nM | 
3 | O=C(NCC1(O)CCCCC1)c1cc(=O)c2cc(O)ccc2o1 [Example 13, 6-hydroxy-N-[(1-hydroxycyclohexyl)methyl]-4-oxo-chromene-2-carboxamide] | 50.1 nM | 20000 nM | 120 nM | 79.4 nM | 251 nM | 
4 | O=C(NCC1CCCCC1)c1cc(=O)c2cc(F)ccc2o1 [Example 31, N-(cyclohexylmethyl)-6-fluoro-4-oxo-chromene-2-carboxamide] | 316 nM | 50100 nM | 631 nM | 79.4 nM | 126 nM | 
5 | O=C(NCC1(O)CCCCC1)c1cc(=O)c2cc(F)cc(F)c2o1 [Example 55, 6,8-difluoro-N-[(1-hydroxycyclohexyl)methyl]-4-oxo-chromene-2-carboxamide] | 398 nM | 50100 nM | 501 nM | 200 nM |  | 
6 | O=C(NCC1CCC(F)(F)CC1)c1cc(=O)c2cc(F)cc(O)c2o1 [Example 75, N-((4,4-difluorocyclohexyl)methyl)-6-fluoro-8-hydroxy-4-oxo-4H-chromene-2-carboxamide] | 200 nM | 50100 nM | 794 nM | 79.4 nM |  | 
7 | O=C(NCC1(O)CCC(F)(F)CC1)c1cc(=O)c2cc(F)cc(O)c2o1 [Example 76A, N-((4,4-difluoro-1-hydroxycyclohexyl)methyl)-6-fluoro-8-hydroxy-4-oxo-4H-chromene-2-carboxamide] | 79.4 nM | 50100 nM | 3160 nM | 50.1 nM |  | 
8 | O=C(NC1CCCCC1)c1cc(=O)c2cc(F)cc(O)c2o1 [Example 76B, N-cyclohexyl-6-fluoro-8-hydroxy-4-oxo-chromene-2-carboxamide] | 1580 nM |  |  | 398 nM |  | 7940 nM
9 | O=C(NC1CCCC(F)(F)C1)c1cc(=O)c2cc(F)cc(O)c2o1 (centres unmarked) [Example 76C, N-(3,3-Difluorocyclohexyl)-6-fluoro-8-hydroxy-4-oxo-4H-chromene-2-carboxamide] | 1000 nM | 50100 nM | 2000 nM | 316 nM |  | 15800 nM
10 | O=C(NCC1(O)CC2(CCC2)C1)c1cc(=O)c2cc(F)cc(O)c2o1 [Example 76D, 6-fluoro-8-hydroxy-N-((2-hydroxyspiro[3.3]heptan-2-yl)methyl)-4-oxo-4H-chromene-2-carboxamide] | 398 nM | 50100 nM | 3980 nM | 126 nM |  | 
11 | O=C(NCC1CCC1)c1cc(=O)c2cc(F)cc(O)c2o1 [Example 76E, N-(cyclobutylmethyl)-6-fluoro-8-hydroxy-4-oxo-4H-chromene-2-carboxamide] | 794 nM |  |  | 251 nM |  | 31600 nM
12 | O=C(NCCCC1CCC1)c1cc(=O)c2cc(F)cc(O)c2o1 [Example 76G, N-(3-cyclobutylpropyl)-6-fluoro-8-hydroxy-4-oxo-4H-chromene-2-carboxamide] | 1580 nM | 31600 nM | 1260 nM | 126 nM |  | 
13 | CCC(C)CNC(=O)c1cc(=O)c2cc(F)cc(O)c2o1 (centres unmarked) [Example 76H, 6-fluoro-8-hydroxy-N-(2-methylbutyl)-4-oxo-chromene-2-carboxamide] | 251 nM |  |  | 251 nM |  | 50100 nM
14 | Nc1cccc2c(=O)cc(C(=O)NCC3CCCCC3)oc12 [Example 83, 8-Amino-N-(cyclohexylmethyl)-4-oxo-4H-chromene-2-carboxamide] | 20 nM | 7940 nM |  | 50.1 nM | 158 nM | 
15 | CS(=O)(=O)Nc1cccc2c(=O)cc(C(=O)NCC3CCCCC3)oc12 [Example 84, N-(cyclohexylmethyl)-8-(methylsulfonamido)-4-oxo-4H-chromene-2-carboxamide] | 316 nM | 50100 nM | 631 nM | 126 nM |  | 
16 | Nc1cc(F)cc2c(=O)cc(C(=O)NCC3CCC(F)(F)CC3)oc12 [Example 94, 8-amino-N-[(4,4-difluorocyclohexyl)methyl]-6-fluoro-4-oxo-4H-chromene-2-carboxamide] | 50.1 nM |  |  |  | 50.1 nM | 
17 | Nc1cc(F)cc2c(=O)cc(C(=O)NCC3CCC(F)(F)C3)oc12 (centres unmarked) [Example 95, 8-amino-N-[(3,3-difluorocyclopentyl)methyl]-6-fluoro-4-oxo-4H-chromene-2-carboxamide] | 50.1 nM |  |  |  | 63.1 nM | 
18 | Nc1cc(F)cc2c(=O)cc(C(=O)NCC3CCCCC3)oc12 [Example 99, 8-amino-N-(cyclohexylmethyl)-6-fluoro-4-oxo-chromene-2-carboxamide] | 10 nM | 5010 nM | 15.8 nM | 50.1 nM | 25.1 nM | 
